Measured values reported in patent US9603892B2, “Peptide compound for inhibiting restenosis and promoting re-endothelialization and method for preparing the same” (Chonnam National University Hospital, priority 2014, dated 2017).

System: vascular smooth muscle cell (SMC)
Assay: Effect on proliferation of vascular smooth muscle cell (SMC), XTT assay
Assay type: cell-based
Details: 1 uM; XTT at 1, 4 and 7 days; versus untreated control, which grew until 7 days; FIG. 1
Procedure: As cells used in a cell culture, the vascular smooth muscle cell (SMC) which is a smooth muscle cell, and the human umbilical vein endothelial cell (HUVEC) which is the cell for promoting vascular re-endothelialization were purchased from Korea Cell Line Bank, respectively. The cell culture was performed by culturing the vascular smooth muscle cell (SMC) and the human umbilical vein endothelial cell (HUVEC) in Dulbecoco's modified eagle medium (DMEM) with 10% fetal bovine serum (FBS) under conditions of 37° C. and 5% CO2. […]
(§1) 5×10^4 of SMC cells cultured according to Example 2 were cultured in the 24-well cell culture plate and then treated with 1 uM of the peptide compound prepared by Example 2 (hereinafter, referred to as ‘EVR-P’). […] After the reaction, 200 ul of the culture medium was transferred from each well to a 96 well cell culture dish, and degree of color change was measured from absorbance at a 450 nm wavelength by a spectroscopy.
as §1, with “the known Everolimus (EVR)(LC Laboratories).” for “the peptide compound prepared by Example 2 (hereinafter, referred to as ‘EVR-P’).”, “to the” for “to a”

CO[C@H]1C[C@@H]2CC[C@@H](C)[C@@](O)(O2)C(=O)C(=O)N2CCCC[C@H]2C(=O)O[C@H]([C@H](C)C[C@@H]2CC[C@@H](OCCO)[C@H](OC)C2)CC(=O)[C@H](C)/C=C(\C)[C@@H](O)[C@@H](OC)C(=O)[C@H](C)C[C@H](C)/C=C/C=C/C=C/1C [EVR, Everolimus]
SMC cell proliferation (XTT, absorbance at 450 nm): cell proliferation was inhibited
